Source: patent US4786755A, “Diphenic acid monoamides” (Warner-Lambert Company, priority 1986, dated 1988)

Test system: Sensitized Guinea Pigs
Experiment: Slow-Onset (nonhistamine) Bronchospasm Induced by Antigen Challenge in Sensitized Guinea Pigs (SRSPIG)
Assay type: in vivo, guinea pig
Parameters: concentration or dose not given beside the values
Conditions: mepyramine pretreated, five minutes after ovalbumin
From the text: Induction and Quantitation of the Slow-Onset (nonhistamine) Bronchospasm Induced by Antigen Challenge in Sensitized Guinea Pigs (SRSPIG)
This guinea pig in vivo model was developed to quantitate the pulmonary effects of nonhistamine mediated, antigen-induced anaphylaxis. Mepyramine pretreatment is used to block the effects of histamine to permit quantitation of the effects of other biologically active mediators. The method is designed to detect drugs which inhibit the release or synthesis "other" mediators, such as leukotriene, thromboxane, etc., or drugs blocking the end organ effects of these mediators. When a sensitized guinea pig is exposed to the sensitizing antigen, it develops a systemic anaphylactic response characterized by increased pulmonary resistance and decreased dynamic compliance (CDYN). Pulmonary resistance is a measure of the changes in transpulmonary pressure and respiratory flow. Dynamic compliance is an expression of the relative changes in tidal volume and transpulmonary pressure. In this model, dynamic compliance is used to measure changes in the elastic propertie of the small airways and pulmonary resistance to measure constrictive responses of the large airways. In human asthma, small airway changes appear to be more closely related to the pathogenesis of disease. Thus, dynamic compliance effects will be weighted more heavily in our analysis of the changes produced by drugs. In the presence of mepyramine, the effects of histamine are blocked. The observed pulmonary effects are thought to be largely leukotriene mediated. In the guinea pig, thromboxanes may also be involved (1,2) and might augment the leukotriene response. Since leukotrienes are not preformed mediators and their effects are slow in onset, in the absence of the histamine effect, a bronchospasm is not seen until approximately 1.5-3 minutes after antigen administration. However, the leukotriene-mediated response is long lasting.
Animals: Male Hartley strain guinea pigs, weighing between 200 and 250 g on delivery, were used. The animals were supplied by the Charles River Co., Wilmington, MA.
Sensitization Procedure: Ovalbumin (2× recrystallized, Miles Laboratories Ltd.) is dissolved (0.2 mg/ml) in saline. The guinea pigs are given a single intraperitoneal injection of 0.5 ml of the stock solution to sensitize them. The animals are maintained normally for four to six weeks before use.
Anesthesia: Surgical anesthesia is induced by giving an IP injection of valium, 5 mg/kg, followed immediately by Innovar-Vet (Pitman-More), 0.7 ml/kg (IM). Each ml of Innovar-Vet contains 0.4 mg fentanyl, 20 mg droperidol, 1.8 mg methylparaben, and 0.2 mg propylparaben.
Surgical Preparation: The anesthetized guinea pig is shaved in the ventral neck region and on the right side of the thorax and affixed supine to a dissecting board. A midline incision is made in the neck and the trachea is exposed. The jugular vein is cannulated with PE 50 tubing to administer drugs and antigen. The trachea is cannulated with PE 240 tubing. If the protocol required measuring blood pressure, the carotid artery is isolated and cannulated with PE 50 tubing. A spear-like cannula is then inserted into the thorax to measure transpulmonary pressure. Needle electrodes are inserted into the musculature of each leg to record electrocardiograms.
Pulmonary Mechanics Methods: The tracheal cannula is connected inline to a Fleisch 000 pneumotachograph (factor calibration 10 cm H2 O=22.2 ml/sec) and a Validyne differential pressure transducer, to measure respiratory flow. Transpulmonary pressure is measured by connecting one side of a Validyne pressure transducer to the side arm of the tracheal cannula and the other side to the cannula inserted into the thorax at approximately the 5th intercostal space.
The pressure and flow signals are fed into Validyne preamplifiers and then transmitted to a pulmonary mechanics computer (Buxco). […]

Compound	SRS-PIG, percent inhibition (CDYN) [%]
O=C(O)c1ccccc1-c1ccccc1C(=O)Nc1ccc(CCCc2ccc(Cl)c(Cl)c2)cc1 [Example 1, [1,1'-Biphenyl]-2-carboxylic acid, 2'-[[[4-[3-(3,4-dichlorophenyl)propyl]phenyl]amino]carbonyl]-]	51
O=C(O)c1ccccc1-c1ccccc1C(=O)Nc1ccc(OCCCc2ccccc2)cc1 [Example 2]	64
O=C(O)c1ccccc1-c1ccccc1C(=O)Nc1ccc(CCc2ccc(Cl)c(Cl)c2)cc1 [Example 3, [1,1'-Biphenyl]-2-carboxylic acid, 2'-[[[4-[2-(3,4-dichlorophenyl)ethyl]phenyl]amino]carbonyl]-]	16
O=C(O)c1ccccc1-c1ccccc1C(=O)Nc1cccc(CCc2ccc(Cl)c(Cl)c2)c1 [Example 4, [1,1'-Biphenyl]-2-carboxylic acid, 2'-[[[3-[2-(3,4-dichlorophenyl)ethyl]phenyl]amino]carbonyl]-]	3
O=C(O)c1ccccc1-c1ccccc1C(=O)Nc1ccc(CCCc2ccccc2)cc1 [Example 16, [1,1'-Biphenyl]-2-carboxylic acid, 2'-[[[4-(3-phenylpropyl]phenyl]amino]carbonyl]-]	33
O=C(O)c1ccccc1-c1ccccc1C(=O)Nc1ccc(CCCCCc2ccccc2)cc1 [Example 21, [1,1'-Biphenyl]-2-carboxylic acid, 2'-[[[4-(5-phenylpentyl)phenyl]amino]carbonyl]-]	21
